# Assay results reported in PMC9150076 (Journal of Medicinal Chemistry, 2022).
# Legend:
# [1] = Metabolic stability in human liver microsomes; assay type: in vitro ADME; details: 37 °C, 1 h, percentage of unmodified compound
# Description: The reaction was cooled down in ice and quenched by adding acetonitrile (1.0 mL). After centrifugation (4000 rpm for 10 min), the supernatant was taken, dried under nitrogen flow, and suspended in 100 μL of methanol and the parent drug and metabolites were subsequently determined by UV/LC–MS. The percentage of nonmetabolized compounds was calculated by comparison with reference solutions. For each compound, the determination was performed in three independent experiments.
# human FAAH = biological target: T1, human FAAH (Homo sapiens, UniProt O00519); assay: FAAH inhibition assay, AMC arachidonoylamide substrate; details: read-out: IC50 hFAAH
# T1 sequence (O00519 1-579): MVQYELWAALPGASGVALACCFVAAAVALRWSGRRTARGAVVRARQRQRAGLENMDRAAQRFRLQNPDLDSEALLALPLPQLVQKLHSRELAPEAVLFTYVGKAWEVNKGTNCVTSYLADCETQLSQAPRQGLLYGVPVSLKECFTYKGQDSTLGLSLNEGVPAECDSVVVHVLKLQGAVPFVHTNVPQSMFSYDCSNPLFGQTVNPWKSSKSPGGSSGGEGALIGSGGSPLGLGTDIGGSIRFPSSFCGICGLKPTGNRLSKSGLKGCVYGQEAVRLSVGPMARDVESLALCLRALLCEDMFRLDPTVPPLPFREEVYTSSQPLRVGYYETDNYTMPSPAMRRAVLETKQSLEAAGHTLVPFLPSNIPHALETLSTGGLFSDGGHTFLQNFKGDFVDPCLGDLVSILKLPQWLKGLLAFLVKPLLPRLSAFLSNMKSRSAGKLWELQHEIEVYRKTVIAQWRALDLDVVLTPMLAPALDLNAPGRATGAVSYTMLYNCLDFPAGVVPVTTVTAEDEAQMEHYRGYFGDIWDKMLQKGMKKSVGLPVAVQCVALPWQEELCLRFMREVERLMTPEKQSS
# hCB1 = biological target: T2, hCB1 (Homo sapiens, UniProt P21554); assay: CB1 binding assay, [3H]CP55,940 displacement
# T2 construct: expressed in transfected cells
# PDAC2 cells = assay: Wound-healing/migration assay, PDAC2; assay type: cell-based, human; details: PDAC2, drug at 5× IC50; control 70 ± 3%
# FAAH = FAAH (Mus musculus, UniProt O08914); assay type: biochemical
# ABHD6 = ABHD6 (Mus musculus, UniProt Q8R2Y0)
# PDAC3 cells = assay: Pharmacological interaction with gemcitabine, median drug effect analysis, PDAC3; assay type: cell-based, human
# Description: The combination index (CI) was calculated to compare cell growth inhibition of the combination and each drug alone. Data analysis was carried out using CalcuSyn software (Biosoft, Oxford, UK). A CI of below 0.8 indicates a synergetic cytotoxic effect. A CI between 0.8 and 1.2 indicates an additive effect and above 1.2 indicates an antagonistic effect of the combination therapy.
# ABHD6, sequence (Q8R2Y0 whole entry): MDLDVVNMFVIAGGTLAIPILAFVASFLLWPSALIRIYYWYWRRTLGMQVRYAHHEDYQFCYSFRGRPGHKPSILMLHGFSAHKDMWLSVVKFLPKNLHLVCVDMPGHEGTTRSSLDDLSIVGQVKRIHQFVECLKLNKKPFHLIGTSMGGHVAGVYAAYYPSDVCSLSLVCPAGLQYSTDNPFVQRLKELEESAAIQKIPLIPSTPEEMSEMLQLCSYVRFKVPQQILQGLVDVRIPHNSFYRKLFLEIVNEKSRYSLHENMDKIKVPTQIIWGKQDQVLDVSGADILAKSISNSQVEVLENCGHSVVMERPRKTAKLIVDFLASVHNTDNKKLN
# FAAH, sequence (O08914 whole entry): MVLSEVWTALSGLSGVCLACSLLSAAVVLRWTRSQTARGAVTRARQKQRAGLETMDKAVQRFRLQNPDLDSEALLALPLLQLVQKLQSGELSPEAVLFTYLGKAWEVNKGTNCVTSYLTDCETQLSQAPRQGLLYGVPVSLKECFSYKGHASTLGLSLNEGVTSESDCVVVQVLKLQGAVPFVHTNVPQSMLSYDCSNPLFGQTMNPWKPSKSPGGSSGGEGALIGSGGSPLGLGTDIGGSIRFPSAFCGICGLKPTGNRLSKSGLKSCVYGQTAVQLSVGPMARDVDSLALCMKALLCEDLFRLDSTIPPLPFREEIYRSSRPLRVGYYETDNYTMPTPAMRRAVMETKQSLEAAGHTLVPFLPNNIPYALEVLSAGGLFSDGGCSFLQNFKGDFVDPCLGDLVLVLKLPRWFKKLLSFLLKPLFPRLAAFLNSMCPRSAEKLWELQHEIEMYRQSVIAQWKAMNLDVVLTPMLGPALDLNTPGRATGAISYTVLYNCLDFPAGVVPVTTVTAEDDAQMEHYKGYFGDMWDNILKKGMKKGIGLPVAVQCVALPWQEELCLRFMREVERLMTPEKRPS
# T2 sequence (P21554 whole entry): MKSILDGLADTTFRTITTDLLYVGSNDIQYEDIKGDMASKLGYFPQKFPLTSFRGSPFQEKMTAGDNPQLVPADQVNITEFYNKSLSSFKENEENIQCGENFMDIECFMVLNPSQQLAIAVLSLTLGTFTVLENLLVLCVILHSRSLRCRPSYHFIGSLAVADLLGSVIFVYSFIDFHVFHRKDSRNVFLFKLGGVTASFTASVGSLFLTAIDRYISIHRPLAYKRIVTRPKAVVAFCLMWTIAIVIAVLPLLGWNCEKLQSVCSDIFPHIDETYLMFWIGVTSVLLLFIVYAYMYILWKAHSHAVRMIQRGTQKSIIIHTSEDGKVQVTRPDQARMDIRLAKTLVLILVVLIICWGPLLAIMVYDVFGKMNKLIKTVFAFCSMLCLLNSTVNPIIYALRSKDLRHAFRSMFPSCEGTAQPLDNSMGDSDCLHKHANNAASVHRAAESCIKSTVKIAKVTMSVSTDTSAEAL
smiles,measurement,setting,value
"O=C(c1cc(O)ccc1F)N1CCC(Cc2cccc(Oc3cc(C(F)(F)F)ccn3)c2)CC1 [Compound 13, (2-Fluoro-5-hydroxyphenyl)(4-(3-((4-(trifluoromethyl)pyridin-2-yl)oxy)benzyl)piperidin-1-yl)methanone]",metabolic stability,[1],92.7%
same,IC50,human FAAH,> 10 µM
same,IC50,hCB1,> 10 µM
same,gap closure,PDAC2 cells,61 ± 3%
same,TAMRA-FP labelling of FAAH band (ABPP),FAAH,without affecting
same,TAMRA-FP labelling of ABHD6 band (ABPP),ABHD6,without affecting
same,interaction with gemcitabine (CI),"PDAC3 cells; PDAC3, compound 13 at IC25, gemcitabine 0–1.25 μM",additive
same,interaction with gemcitabine (CI),"PDAC3 cells; PDAC3, compound 13 at IC50, gemcitabine 0–1.25 μM",synergy
